# Measured values taken from US10155742B2, “Halofuginol derivatives and their use in cosmetic and pharmaceutical compositions” (President and Fellows of Harvard College, priority 2012, dated 2018).
# How the values were obtained:
# [1] = Anti-HF ELISA of intracellular HF levels; type: in vitro ADME, mouse
# Procedure: MEFs were incubated with the indicated concentration of HF in the presence or absence of 2 mM proline for 2 hours, washed twice in cold PBS, and lysed in 1% NP40. Lysates were then tested for HF levels in comparison to a standard curve using known concentrations of HF with an anti-HF antibody based ELISA assay (see Examples). […] Similar results were obtained in three separate experiments.
# Polyclonal anti-HF antibody was raised by immunizing rabbits with KLH coupled to an HF derivative (MAZ1356, FIG. 1) containing a linker attached to the quinazolinone and terminated by a primary amino group. Antibody was affinity purified using MAZ1356 linked to NHS-agarose. For the ELISA assay (FIG. 17), MAZ1356 was coupled to 96-well Reacti-bind Plates (Pierce). After binding, plates were blocked with 10% goat serum in PBS/0.2% Tween-20 (PBST). […] Captured antibody was quantitated using TMB based colorimetric detection (Pierce), and a standard curve for HF concentration fitted from the colorimetric data. […] To determine HF concentration in cells, 8 μl of cleared lysate (or control buffer) was incubated with anti-HF antibody in MAZ1356 bound wells, and captured antibody detected and quantitated as described above. HF concentration was then determined by fitting colorimetry results with cell samples to a standard curve of HF concentration. […]
# [2] = tested on: P. falciparum (Dd2); assay: In vitro P. falciparum viability assay with excess proline; type: cell-based, Plasmodium falciparum; conditions: Dd2 strain in red blood cells, relative to unmodified RPMI, FIG. 23
# Procedure: The activity of halofuginone and amodiaquine as inhibitors of P. falciparum growth was tested in erythrocytes in RPMI with or without excess amino acids as indicated, and IC50 values were normalized to IC50 values obtained under standard conditions using unmodified RPMI (numbers in bold). The absolute IC50 values for halofuginone and amodiaquine for RPMI are reported in parentheses. Fold amino acid indicated (e.g., “5×”) is relative to the concentration of the respective amino acid in RPMI. Fold concentration of D-Pro and L-Orn are relative to L-Pro.
# In vitro potency against P. falciparum (DD2) was assessed using a modified version of the method of Plouffe and coworkers (Plouffe et al. Proc. Natl. Acad. Sci. USA 105:9059-64 (2008)). Parasites were cultured in the presence of drug in RPMI (Sigma) containing 4.16 mg/ml Albumax in a total volume of 50 μl at a 2.5% hematocrit and an initial parasitemia of 0.3% in black Greiner GNF clear-bottom plates. Cultures were incubated 72 hr at 37° C. under […], 4% CO2 and 3% O2. At the end of the incubation, SYBR green was added to a dilution of 1:10,000 and plates were stored overnight (or until ready to be read) at −80° C. Just before reading, plates were centrifuged at 700 rpm and fluorescence was read using 480 nm excitation and 530 nm emission frequencies. Compound concentrations that inhibit parasite replication reduce the fluorescence intensity of SYBR green bound to parasite DNA.
# [3] = tested on: prolyl-tRNA charging in the RRL system; assay: tRNA charging in RRL (14C Pro or 35S Met incorporation into tRNA); conditions: FIG. 2D
# [4] = target: T1, prolyl tRNA synthetase domain of human EPRS (ProRS) (Homo sapiens, UniProt P07814); assay: biochemical
# T1 sequence (P07814 998-1512 limits assumed): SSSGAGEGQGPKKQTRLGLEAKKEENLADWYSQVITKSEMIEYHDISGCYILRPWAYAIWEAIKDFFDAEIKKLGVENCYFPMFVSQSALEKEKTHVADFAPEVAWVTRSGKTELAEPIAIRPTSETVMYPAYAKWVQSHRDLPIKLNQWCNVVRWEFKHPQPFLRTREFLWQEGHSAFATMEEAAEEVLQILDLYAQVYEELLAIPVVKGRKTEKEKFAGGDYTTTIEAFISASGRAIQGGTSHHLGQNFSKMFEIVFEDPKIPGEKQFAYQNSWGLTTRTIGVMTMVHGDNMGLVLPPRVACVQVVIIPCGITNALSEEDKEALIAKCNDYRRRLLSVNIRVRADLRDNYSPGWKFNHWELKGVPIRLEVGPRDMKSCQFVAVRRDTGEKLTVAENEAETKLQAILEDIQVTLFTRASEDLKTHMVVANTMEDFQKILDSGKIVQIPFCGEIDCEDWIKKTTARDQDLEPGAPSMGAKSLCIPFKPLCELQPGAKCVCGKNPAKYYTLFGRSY
# Procedure: Activity of the Prolyl tRNA synthetase domain of EPRS (ProRS) was measured as ^3H Pro incorporation into the charged tRNA pool. […] Purified enzyme was visualized as a single band by Laemmli gel electrophoresis/Coomassie staining.
# Purified enzyme was visualized as a single band by Laemmli gel electrophoresis/Coomassie staining. […] In preliminary experiments, the assay was established to be linear over the time (6 min) and conditions used (30 degrees, 2 mM ATP, 1 μg/μl total tRNA purified from rabbit liver).
# For the rapid, quantitative isolation of aminoacylated tRNA^pro from synthetase reaction mixtures, reactions were stopped with 100 μl of ice cold 20 mM MOPS pH6.2, 200 mM NaCl, 10 mM EDTA, 30% Glycerol and placed on ice. Samples were added to 15 μl of packed Mono Q HP beads (GE Healthcare) equilibrated in the same buffer. Samples were incubated with beads on ice for 10 min, beads were pelleted by 5 sec centrifugation in a tabletop microfuge and washed 3× 1 ml of wash buffer (20 mM MOPS pH6.2, 50 mM NaCl), and recovered pellets counted in a liquid scintillation counter. Background binding of ^3H Pro to beads (using reaction mix with either no enzyme added or no tRNA added) was negligible (20-40 cpm).
# [5] = tested on: dermal ECM deposition; conditions: intraperitoneally, added to food, or applied locally; Pines et al. 2003; cited from earlier work
structure (smiles),measurement,setting,value
"O=C(C[C@H]1NCCC[C@@H]1O)Cn1cnc2cc(Br)c(Cl)cc2c1=O (racemic) [HF, 7-bromo-6-chloro-3-[3-(3-hydroxy-2-piperidinyl)-2-oxopropyl]-4(3H)-quinazolinone]",effect of proline addition on intracellular accumulation of HF,"[1]; 2 mM proline, 2 hours, FIG. 17",not affected
same,absolute HF concentration inside cells,"[1]; MEFs incubated with 20 nM HF for 2 hours, packed cell volume estimated as 4 μl",~800 nM
same,fold increase of effective IC50 on addition of 5× proline,[2],roughly 7 fold
same,incorporation of 14C-Pro into tRNA,[3],inhibited
same,Ki,[4],18.3 nM
same,excess dermal ECM deposition,[5],reduces
